From ChEMBL document CHEMBL1201862, “PubChem BioAssay data set” (2004)
Active and inactive are the calls of the source.

Legend:
[1] = system: Streptococcus sp. 'group A'; experiment: growth inhibition of control SK(-) GAS strain, dose response, counter-screen for streptokinase expression inhibitor project, luminescence, kanamycin, BacTiterGlo, confirmation (AID 1900); format: functional, organism-based
Streptococcus [2] = experiment: Luminescence Microorganism-Based Dose Response Follow up to Identify Compounds Cytotoxic to Streptococcus. [Related pubchem assays: 1677 (Project Summary), 1915, 1914, 1902 (Retest at Dose), 1900 (Counter Screen), 1662 (Primary HTS)]; format: functional, organism-based
Streptokinase A = target: T1, Streptokinase A (Streptococcus pyogenes serotype M1, UniProt P10520); experiment: S. pyogenes streptokinase expression inhibitors, potency, dose response, plasminogen activation absorbance, OD405 (AID 1914); format: functional, Streptococcus pyogenes M1 GAS;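 further: secreted streptokinase activity via plasminogen activation per viability signal from cell pellet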
T1 sequence (P10520 whole entry): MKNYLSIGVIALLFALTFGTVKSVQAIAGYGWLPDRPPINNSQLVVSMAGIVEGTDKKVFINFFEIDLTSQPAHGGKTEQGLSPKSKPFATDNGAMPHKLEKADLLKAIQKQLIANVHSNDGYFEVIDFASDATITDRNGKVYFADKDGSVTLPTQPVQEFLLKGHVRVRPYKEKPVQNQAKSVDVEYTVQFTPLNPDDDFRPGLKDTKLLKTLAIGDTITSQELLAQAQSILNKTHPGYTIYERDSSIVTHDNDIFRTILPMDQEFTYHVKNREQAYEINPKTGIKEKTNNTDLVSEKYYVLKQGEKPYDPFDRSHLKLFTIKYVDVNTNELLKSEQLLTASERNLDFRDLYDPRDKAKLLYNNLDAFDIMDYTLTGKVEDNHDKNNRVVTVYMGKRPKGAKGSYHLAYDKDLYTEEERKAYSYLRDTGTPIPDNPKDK

Streptococcus [3] = experiment: Group A Streptococcus viability loss, dose response, counter-screen for streptokinase expression inhibitor project, luminescence, BacTiterGlo (AID 1915); format: functional, organism-based;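 further: potency for reduction of bacterial viability or growth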
Beta-galactosidase [4] = target: T2, Beta-galactosidase (Escherichia coli, UniProt Q8VNN2); experiment: Dose response counterscreen for EBI2 assay utilizing the enzyme, b-galactosidase.; format: functional
[5] = target: Lysosomal acid glucosylceramidase (Homo sapiens, UniProt P04062); experiment: Dose response cell-based high throughput screening assay to identify enhancers of beta-glucosidase activity. [Related pubchem assays: 784 ]; format: functional
[6] = target: T3, Alkaline phosphatase, tissue-nonspecific isozyme (Homo sapiens, UniProt P05186)
T3 sequence (P05186 whole entry): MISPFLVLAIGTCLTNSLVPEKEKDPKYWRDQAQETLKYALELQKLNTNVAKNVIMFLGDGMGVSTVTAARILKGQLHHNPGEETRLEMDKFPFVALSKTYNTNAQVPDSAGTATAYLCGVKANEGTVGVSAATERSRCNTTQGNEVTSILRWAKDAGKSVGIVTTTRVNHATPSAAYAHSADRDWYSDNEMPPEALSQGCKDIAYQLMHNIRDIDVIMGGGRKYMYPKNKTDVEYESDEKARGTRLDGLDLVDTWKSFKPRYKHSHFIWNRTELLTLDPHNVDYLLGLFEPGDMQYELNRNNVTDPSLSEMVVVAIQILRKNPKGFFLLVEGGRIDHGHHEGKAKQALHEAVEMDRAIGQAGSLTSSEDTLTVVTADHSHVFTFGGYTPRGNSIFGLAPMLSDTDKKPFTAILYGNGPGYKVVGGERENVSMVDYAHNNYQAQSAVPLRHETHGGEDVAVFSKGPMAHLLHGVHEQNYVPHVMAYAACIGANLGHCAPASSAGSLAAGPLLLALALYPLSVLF

[7] = target: T4, Replicative DNA helicase DnaB (Mycobacterium tuberculosis, UniProt P9WMR3); experiment: DnaB intein splicing inhibitors, dose response, biochemical, cell-free fluorescence (AID 449749); format: functional
T4 sequence (P9WMR3 whole entry): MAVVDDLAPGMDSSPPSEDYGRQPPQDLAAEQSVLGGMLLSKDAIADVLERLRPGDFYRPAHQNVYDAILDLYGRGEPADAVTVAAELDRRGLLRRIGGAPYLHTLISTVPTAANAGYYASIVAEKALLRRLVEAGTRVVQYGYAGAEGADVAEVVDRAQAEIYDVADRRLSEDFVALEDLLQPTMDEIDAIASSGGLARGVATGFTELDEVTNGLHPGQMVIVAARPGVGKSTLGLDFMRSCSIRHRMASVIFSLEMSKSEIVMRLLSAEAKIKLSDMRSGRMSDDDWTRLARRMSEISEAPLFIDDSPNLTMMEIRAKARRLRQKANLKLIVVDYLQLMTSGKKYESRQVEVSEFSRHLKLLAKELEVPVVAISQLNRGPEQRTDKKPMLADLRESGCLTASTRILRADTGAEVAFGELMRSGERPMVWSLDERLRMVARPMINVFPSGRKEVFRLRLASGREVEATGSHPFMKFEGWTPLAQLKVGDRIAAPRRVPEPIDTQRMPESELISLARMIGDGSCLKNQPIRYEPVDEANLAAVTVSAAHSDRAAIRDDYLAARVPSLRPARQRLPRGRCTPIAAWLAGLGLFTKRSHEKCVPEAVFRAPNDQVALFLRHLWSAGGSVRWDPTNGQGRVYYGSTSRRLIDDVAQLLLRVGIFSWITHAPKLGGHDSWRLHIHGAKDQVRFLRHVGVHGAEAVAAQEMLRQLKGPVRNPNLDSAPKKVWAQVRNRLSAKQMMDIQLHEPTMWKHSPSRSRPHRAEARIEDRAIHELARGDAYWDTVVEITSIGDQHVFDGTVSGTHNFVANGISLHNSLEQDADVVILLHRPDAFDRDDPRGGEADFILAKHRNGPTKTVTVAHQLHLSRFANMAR

Protein RecA = target: T5, Protein RecA (Mycobacterium tuberculosis, UniProt P9WHJ3); experiment: Fluorescence Cell-Free Homogeneous Dose Retest to Identify Inhibitors of RecA-Intein Splicing Activity. [Related pubchem assays (depositor defined):AID2097, AID2223, AID489010, AID492950]; format: functional
T5 sequence (P9WHJ3 whole entry): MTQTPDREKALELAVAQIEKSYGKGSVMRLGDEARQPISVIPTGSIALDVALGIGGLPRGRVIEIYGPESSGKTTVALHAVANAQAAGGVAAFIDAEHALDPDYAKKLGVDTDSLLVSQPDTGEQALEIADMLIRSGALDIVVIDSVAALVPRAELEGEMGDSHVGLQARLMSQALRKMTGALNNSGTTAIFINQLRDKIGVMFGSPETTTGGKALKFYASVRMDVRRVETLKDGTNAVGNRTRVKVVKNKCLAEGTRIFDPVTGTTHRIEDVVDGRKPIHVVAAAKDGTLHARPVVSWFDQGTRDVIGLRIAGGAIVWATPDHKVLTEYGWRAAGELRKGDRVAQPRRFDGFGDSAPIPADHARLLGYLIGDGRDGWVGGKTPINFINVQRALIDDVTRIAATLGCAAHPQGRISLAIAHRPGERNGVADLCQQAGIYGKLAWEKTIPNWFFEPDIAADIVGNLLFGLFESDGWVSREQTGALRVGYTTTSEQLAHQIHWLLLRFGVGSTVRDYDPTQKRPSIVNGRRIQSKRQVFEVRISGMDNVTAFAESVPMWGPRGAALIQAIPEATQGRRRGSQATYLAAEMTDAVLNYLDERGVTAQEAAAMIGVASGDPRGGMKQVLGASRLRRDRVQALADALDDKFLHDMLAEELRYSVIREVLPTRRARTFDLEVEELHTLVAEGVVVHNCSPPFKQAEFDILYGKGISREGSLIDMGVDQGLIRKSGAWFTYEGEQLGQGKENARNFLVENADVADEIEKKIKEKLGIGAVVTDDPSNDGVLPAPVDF

[8] = target: Peroxisome proliferator-activated receptor gamma/Nuclear receptor coactivator 2 (Homo sapiens, UniProt P37231); format: functional;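 further: agonist potency for raising coactivator recruitment to the receptor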
[9] = target: Peroxisome proliferator-activated receptor gamma/Nuclear receptor coactivator 1 (Homo sapiens, UniProt P37231); format: functional;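 further: agonist potency as compounds enhance coactivator SRC-1 recruitment to PPARgamma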
[10] = target: Peroxisome proliferator-activated receptor gamma/Nuclear receptor coactivator 3 (Homo sapiens, UniProt P37231); format: functional;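 further: agonist potency for raising coactivator recruitment to the receptor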
[11] = target: T6, Eukaryotic translation initiation factor 2-alpha kinase 3 (Homo sapiens, UniProt Q9NZJ5); experiment: Dose response cell-based high-throughput screening assay to measure PERK inhibition. [Related pubchem assays: 1416 ]; format: functional
T6 sequence (Q9NZJ5 whole entry): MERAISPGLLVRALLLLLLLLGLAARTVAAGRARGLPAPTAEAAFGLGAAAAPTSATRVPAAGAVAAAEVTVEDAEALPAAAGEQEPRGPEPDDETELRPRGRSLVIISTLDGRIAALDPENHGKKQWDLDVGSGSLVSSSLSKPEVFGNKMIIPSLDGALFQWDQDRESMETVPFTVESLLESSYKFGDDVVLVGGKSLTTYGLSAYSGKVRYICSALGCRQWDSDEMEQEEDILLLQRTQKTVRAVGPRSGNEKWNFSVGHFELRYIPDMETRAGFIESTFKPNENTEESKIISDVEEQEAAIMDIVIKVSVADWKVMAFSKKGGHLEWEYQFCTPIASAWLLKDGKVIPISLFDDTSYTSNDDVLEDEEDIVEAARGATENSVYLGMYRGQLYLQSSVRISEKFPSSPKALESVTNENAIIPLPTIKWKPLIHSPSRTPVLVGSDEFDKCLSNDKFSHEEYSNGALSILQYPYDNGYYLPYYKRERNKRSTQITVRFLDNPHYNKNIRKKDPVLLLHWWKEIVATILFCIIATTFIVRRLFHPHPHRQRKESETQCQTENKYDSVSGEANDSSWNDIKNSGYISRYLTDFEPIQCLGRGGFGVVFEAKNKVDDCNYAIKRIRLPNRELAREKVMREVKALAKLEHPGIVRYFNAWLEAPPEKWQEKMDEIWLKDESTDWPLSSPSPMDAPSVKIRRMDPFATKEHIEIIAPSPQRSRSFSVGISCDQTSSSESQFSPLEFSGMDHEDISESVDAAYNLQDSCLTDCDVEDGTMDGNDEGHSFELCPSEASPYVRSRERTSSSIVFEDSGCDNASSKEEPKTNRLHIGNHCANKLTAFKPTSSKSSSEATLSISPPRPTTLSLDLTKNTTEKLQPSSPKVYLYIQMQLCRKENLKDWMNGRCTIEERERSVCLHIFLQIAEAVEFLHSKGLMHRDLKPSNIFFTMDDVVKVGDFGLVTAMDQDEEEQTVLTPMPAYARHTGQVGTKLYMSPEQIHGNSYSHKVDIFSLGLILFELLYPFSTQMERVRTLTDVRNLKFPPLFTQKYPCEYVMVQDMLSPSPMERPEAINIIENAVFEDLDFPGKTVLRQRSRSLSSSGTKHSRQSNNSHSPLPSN

[12] = target: T6, Eukaryotic translation initiation factor 2-alpha kinase 3; experiment: Counterscreen assay for PERK inhibitors: Dose response cell-based high throughput screening assay to measure inhibition of PERK at 6 hours. [Related pubchem assays: 1522, 1416 ]; format: functional
[13] = target: T7, Neuropeptides B/W receptor type 1 (Homo sapiens, UniProt P48145); experiment: Fluorescence-based dose response cell-based high throughput screening assay to identify antagonists of the G-protein coupled receptor 7 (GPR7). [Related pubchem assays: 1952 (Screening assay (GPR7 antagonists).), 1880 (Summary AID.)]; format: functional
T7 sequence (P48145 whole entry): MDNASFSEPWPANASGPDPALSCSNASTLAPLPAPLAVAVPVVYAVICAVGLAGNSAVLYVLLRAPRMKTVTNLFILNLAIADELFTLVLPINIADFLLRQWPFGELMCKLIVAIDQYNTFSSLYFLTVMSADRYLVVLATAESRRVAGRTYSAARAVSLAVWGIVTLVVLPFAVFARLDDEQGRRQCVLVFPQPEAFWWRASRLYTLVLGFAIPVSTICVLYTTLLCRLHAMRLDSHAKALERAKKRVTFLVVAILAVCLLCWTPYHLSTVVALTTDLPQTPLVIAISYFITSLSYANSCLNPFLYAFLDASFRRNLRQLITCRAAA

[14] = target: Melanin-concentrating hormone receptor 1 (Homo sapiens, UniProt Q99705); experiment: Fluorescence-based counterscreen for antagonists of the G-protein coupled receptor 7 (GPR7): cell-based high throughput dose response assay to identify antagonists of the melanin-concentrating hormone receptor 1 (MCHR1).; format: functional
[15] = target: FAD-linked sulfhydryl oxidase ALR (Homo sapiens, UniProt P55789); experiment: inhibitors of human ALR sulfhydryl oxidase, dose response, biochemical, H2O2 detection, luminescence, cherry-pick (AID 493248)
[16] = target: C-C chemokine receptor type 6 (Homo sapiens, UniProt P51684); experiment: CCR6 receptor antagonists, dose response, cell-based, luminescent beta-arrestin readout (AID 504728); format: functional
Beta-galactosidase [17] = target: T2, Beta-galactosidase; experiment: beta-galactosidase enzyme inhibitors and activators, dose response, artefact control for CCR6 antagonist project, biochemical, E. coli enzyme, set 3 (AID 504712); format: functional

T2 sequence (Q8VNN2 whole entry): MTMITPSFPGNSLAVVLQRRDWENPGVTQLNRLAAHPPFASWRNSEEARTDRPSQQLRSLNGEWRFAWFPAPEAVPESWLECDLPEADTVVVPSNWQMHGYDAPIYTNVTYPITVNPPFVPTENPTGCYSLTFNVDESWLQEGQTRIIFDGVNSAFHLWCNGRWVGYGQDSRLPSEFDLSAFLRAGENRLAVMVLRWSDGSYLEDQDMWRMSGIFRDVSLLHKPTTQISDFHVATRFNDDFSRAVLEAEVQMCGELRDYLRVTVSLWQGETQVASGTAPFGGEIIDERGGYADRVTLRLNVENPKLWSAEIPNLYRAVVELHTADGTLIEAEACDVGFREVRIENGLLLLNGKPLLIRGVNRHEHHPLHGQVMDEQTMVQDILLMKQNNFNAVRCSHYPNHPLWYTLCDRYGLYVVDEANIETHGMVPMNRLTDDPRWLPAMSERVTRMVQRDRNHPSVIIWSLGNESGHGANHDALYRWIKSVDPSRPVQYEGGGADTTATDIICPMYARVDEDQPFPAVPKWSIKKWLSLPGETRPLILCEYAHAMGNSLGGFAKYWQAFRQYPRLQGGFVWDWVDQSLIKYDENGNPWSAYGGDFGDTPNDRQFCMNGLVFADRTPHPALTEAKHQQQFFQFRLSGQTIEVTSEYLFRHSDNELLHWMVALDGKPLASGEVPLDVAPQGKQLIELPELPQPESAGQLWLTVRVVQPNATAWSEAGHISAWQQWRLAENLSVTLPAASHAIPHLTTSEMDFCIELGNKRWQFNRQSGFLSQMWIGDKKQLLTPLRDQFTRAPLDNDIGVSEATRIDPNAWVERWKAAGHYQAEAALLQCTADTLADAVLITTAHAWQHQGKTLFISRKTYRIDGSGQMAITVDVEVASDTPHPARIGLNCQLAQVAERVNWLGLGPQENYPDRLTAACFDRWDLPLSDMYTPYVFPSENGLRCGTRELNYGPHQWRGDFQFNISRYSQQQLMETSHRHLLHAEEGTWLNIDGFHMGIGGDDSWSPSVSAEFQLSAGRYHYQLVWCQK
Sequence of Lysosomal acid glucosylceramidase (P04062 whole entry): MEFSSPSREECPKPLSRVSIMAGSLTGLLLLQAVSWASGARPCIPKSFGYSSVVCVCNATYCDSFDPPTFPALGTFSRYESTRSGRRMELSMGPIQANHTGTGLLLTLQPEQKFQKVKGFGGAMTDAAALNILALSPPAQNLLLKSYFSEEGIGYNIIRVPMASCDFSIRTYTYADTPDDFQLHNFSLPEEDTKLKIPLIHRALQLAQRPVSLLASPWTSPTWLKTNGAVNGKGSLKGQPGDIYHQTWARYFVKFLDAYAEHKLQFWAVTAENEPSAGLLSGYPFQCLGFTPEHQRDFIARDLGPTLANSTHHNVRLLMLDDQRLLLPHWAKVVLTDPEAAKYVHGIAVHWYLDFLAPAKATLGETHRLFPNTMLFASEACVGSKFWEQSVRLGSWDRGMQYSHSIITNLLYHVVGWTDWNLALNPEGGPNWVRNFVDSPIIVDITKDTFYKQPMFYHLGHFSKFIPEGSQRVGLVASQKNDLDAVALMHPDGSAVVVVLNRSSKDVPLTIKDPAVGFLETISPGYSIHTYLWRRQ
Sequence of Peroxisome proliferator-activated receptor gamma/Nuclear receptor coactivator 2 (P37231 whole entry): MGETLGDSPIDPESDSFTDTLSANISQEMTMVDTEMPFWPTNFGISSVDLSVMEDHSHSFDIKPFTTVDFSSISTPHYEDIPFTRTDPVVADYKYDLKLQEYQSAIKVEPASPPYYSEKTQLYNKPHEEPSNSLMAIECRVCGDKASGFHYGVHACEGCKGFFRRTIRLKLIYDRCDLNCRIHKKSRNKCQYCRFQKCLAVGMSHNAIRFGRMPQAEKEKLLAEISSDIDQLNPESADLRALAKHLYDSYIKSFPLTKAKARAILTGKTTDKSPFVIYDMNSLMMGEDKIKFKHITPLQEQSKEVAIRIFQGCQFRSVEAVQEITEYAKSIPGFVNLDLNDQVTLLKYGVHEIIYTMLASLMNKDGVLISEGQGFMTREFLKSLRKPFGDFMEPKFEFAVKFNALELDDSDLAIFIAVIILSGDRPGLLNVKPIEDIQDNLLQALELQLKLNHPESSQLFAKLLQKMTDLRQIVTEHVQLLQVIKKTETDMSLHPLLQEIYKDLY
Sequence of Peroxisome proliferator-activated receptor gamma/Nuclear receptor coactivator 2 (Q15596 whole entry, further chain): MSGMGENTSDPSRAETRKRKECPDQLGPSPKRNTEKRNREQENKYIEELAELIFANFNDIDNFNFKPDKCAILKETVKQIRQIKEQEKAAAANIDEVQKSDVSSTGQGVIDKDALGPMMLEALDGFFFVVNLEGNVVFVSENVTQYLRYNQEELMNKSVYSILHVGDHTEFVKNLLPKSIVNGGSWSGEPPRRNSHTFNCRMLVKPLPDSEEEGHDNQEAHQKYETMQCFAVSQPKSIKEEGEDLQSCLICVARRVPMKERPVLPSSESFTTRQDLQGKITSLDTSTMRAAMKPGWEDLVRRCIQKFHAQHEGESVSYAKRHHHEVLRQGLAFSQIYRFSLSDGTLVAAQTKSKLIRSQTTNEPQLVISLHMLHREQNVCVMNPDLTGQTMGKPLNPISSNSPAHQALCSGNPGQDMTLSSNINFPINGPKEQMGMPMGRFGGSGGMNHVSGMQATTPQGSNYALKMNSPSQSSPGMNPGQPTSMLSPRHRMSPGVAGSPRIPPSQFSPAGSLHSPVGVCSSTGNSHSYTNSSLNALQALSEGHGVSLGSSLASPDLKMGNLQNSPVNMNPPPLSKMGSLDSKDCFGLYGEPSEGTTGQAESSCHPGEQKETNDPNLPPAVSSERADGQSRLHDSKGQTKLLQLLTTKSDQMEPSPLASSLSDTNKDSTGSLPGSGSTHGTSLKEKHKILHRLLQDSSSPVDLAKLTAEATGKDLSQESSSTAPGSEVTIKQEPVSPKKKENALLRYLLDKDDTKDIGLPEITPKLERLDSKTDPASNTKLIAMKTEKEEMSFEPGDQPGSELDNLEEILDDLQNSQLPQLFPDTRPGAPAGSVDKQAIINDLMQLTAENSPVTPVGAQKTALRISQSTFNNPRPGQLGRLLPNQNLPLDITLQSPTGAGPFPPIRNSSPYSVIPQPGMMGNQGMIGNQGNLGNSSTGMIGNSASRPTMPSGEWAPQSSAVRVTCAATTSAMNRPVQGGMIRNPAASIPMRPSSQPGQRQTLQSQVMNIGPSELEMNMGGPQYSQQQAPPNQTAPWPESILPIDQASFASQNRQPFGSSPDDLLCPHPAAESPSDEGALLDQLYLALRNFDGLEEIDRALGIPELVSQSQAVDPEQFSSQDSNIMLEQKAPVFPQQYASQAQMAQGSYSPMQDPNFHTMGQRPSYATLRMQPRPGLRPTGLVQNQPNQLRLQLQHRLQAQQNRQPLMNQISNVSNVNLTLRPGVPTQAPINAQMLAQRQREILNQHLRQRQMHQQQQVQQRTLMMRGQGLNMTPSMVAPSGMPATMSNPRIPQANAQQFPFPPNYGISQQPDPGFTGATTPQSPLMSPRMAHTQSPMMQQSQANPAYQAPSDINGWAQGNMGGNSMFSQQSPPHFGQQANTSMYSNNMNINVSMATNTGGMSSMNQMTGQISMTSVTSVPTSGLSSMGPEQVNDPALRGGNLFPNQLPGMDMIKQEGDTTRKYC
Sequence of FAD-linked sulfhydryl oxidase ALR (P55789 whole entry): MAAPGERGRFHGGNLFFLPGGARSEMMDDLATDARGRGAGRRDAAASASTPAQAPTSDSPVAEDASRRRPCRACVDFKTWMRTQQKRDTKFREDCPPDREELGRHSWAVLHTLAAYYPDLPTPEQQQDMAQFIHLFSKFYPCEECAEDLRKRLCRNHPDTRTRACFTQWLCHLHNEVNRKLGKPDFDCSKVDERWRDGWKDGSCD
Sequence of C-C chemokine receptor type 6 (P51684 whole entry): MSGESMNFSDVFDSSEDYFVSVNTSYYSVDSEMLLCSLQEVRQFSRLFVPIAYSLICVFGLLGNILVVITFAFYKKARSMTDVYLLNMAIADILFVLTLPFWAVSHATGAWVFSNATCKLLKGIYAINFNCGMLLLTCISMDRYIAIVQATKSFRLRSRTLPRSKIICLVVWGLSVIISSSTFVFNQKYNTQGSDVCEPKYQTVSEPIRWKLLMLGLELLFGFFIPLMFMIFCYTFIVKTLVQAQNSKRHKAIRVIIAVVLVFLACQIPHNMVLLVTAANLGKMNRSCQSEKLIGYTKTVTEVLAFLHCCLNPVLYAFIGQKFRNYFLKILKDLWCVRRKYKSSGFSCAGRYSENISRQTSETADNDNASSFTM
Sequence of Melanin-concentrating hormone receptor 1 (Q99705 whole entry): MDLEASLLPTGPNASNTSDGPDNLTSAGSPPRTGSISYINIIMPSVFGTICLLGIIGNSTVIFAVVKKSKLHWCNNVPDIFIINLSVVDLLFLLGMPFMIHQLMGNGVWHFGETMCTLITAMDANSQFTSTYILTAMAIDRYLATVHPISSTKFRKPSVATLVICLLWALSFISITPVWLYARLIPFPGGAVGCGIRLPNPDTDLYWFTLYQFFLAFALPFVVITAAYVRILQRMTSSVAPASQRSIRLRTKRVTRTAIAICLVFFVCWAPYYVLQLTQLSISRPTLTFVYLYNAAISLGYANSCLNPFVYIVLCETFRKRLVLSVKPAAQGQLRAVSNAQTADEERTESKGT

COc1ccc2oc(C(=O)N3CCN(C(c4ccccc4)c4ccccc4)CC3)c(C)c2c1
EC50 [1]: 32.2 µM (active) | EC50 (Streptococcus [2]): > 500 µM (not active) | EC50 (Streptokinase A): 4.97 µM (active) | EC50 (Streptococcus [3]): > 150 µM (not active) | IC50 (Beta-galactosidase [4]): > 80 µM (inactive)

O=C(CCCn1c(=S)[nH]c2cc3c(cc2c1=O)OCO3)N1CCN(c2ncccn2)CC1
EC50 [5]: > 50 µM (not active)

CC(C)(C)NC(=O)CSc1nnc(-c2ccco2)n1Cc1ccco1
EC50 [5]: > 50 µM (not active)

CC/C(=C/c1sc2ccc(C)cc2[n+]1CCO)SC
EC50 [6]: > 100 µM (not active) | AC50 [7]: > 380 µM (inactive) | EC50 (Protein RecA): 14.2 µM (active)

COc1ccc2nc(C)cc(SCC(=O)Nc3c(C)cc(C)cc3C)c2c1
EC50 [8]: 27.8 µM (not active) | EC50 [9]: 55.2 µM (not active) | EC50 [10]: > 79.4 µM (not active) | EC50 [6]: > 100 µM (not active)

Cc1cc2oc(=O)cc(CN(C)Cc3ccccc3)c2cc1C(C)C
EC50 [1]: 13.3 µM (active) | EC50 (Streptococcus [2]): > 500 µM (not active) | EC50 (Streptokinase A): 8.46 µM (active) | EC50 (Streptococcus [3]): > 150 µM (not active)

Cc1ccc(NC(=O)COC(=O)CCc2c[nH]c(O)n2)cc1
EC50 [11]: > 55.7 µM (not active) | EC50 [12]: > 55.7 µM (not active)

O=C(NC1CCCCCCC1)C1c2ccccc2C(=O)N1Cc1ccco1 (configuration not stated)
IC50 [13]: > 43.8 µM (not active) | IC50 [14]: > 43.8 µM (not active)

CC(=O)c1ccc(N/N=C2/CCCNC2=O)cc1
EC50 [11]: > 55.7 µM (not active) | EC50 [12]: > 55.7 µM (not active) | AC50 [15]: 3.67 µM (active)

C=CCS/C(N)=N\N=C\c1cc(Br)cc([N+](=O)[O-])c1O
IC50 [16]: > 66.6 µM (inactive) | IC50 (Beta-galactosidase [17]): > 66.6 µM (inactive)
